For three compounds, EC50 results are on record in ChEMBL document CHEMBL1152356, “Solving the confusion of gnaphaliin structure: gnaphaliin A and gnaphaliin B identified as active principles of Gnaphalium liebmannii with tracheal smooth muscle relaxant properties” (J Nat Prod, 2009).

In general, EC50 refers to the concentration that produces a half-maximal response.

The nature of the experiment: Vasorelaxant activity against carbachol chloride-induced contraction in guinea pig trachea treated 30 mins after carbachol chloride challenge. In kind it is functional, tissue-based, Cavia porcellus.

As for `Cn1c(=O)c2[nH]cnc2n(C)c1=O` [AMINOPHYLLINE], the EC50 (read-out: EC50) came out at 534 µM.
For `COc1cc(O)c2c(=O)c(O)c(-c3ccccc3)oc2c1OC` [GNAPHALIIN B], the EC50 stood at 63.05 µg/mL.
Same read-out and setting: under `COc1c(-c2ccccc2)oc2c(OC)c(O)cc(O)c2c1=O` [GNAPHALIIN] stands 43.1 µg/mL.
